Assay results as given in ChEMBL document CHEMBL3885861, “Open TG-GATES”.

Species: Rattus norvegicus
Assay: Open TG-GATES - Regimen: Single
Type: toxicity, organism-based, Sprague-Dawley
Parameters: regimen Single, gender Male, age 6 weeks
Details: in vivo, po, 300 mg/kg, route gavage, dose level High; for APTT / Bas / Eos / Fbg / Hb / Ht / Lym / MCH / MCHC / MCV / Mono / Neu / PT / Plat / RBC / Ret / WBC: tissue Blood; for KIDNEY_L / KIDNEY_R / KIDNEY_TOTAL: tissue Kidney; for LIVER: tissue Liver; for A/G / ALP / ALT / AST / BUN / CRE / Ca / Cl / DBIL / GLC / IP / K / LDH / Na / PL / RALB / TBIL / TC / TG / TP / gamma-GTP: tissue Plasma

## Nc1ccc(Cc2ccc(N)cc2)cc1
3 h
  TERMINAL_BW: 208.2 g
  APTT: 15.8 s
  Bas: 0%
  Eos: 0.8%
  Fbg: 257.6 mg/dL
  Hb: 13.2 g/dL
  Ht: 38.1%
  Lym: 67.2%
  MCH: 22 pg
  MCHC: 34.5%
  MCV: 63.6 fL
  Mono: 6%
  Neu: 25.6%
  PT: 12.1 s
  Plat: 142.6 x10_4/uL
  RBC: 600 x10_4/ul
  Ret: 8.7%
  WBC: 64.7 x10_2/uL
  KIDNEY_L: 0.9 g
  KIDNEY_R: 0.9 g
  KIDNEY_TOTAL: 1.8 g
  LIVER: 9 g
  A/G: 0.8
  ALP: 1363.8 IU/L
  ALT: 64 IU/L
  AST: 137.4 IU/L
  BUN: 10.6 mg/dL
  CRE: 0.2 mg/dL
  Ca: 10.5 mg/dL
  Cl: 102 meq/L
  DBIL: 0.094 mg/dL
  GLC: 183.4 mg/dL
  IP: 9.4 mg/dL
  K: 4 meq/L
  LDH: 175.4 IU/L
  Na: 139.8 meq/L
  PL: 170.8 mg/dL
  RALB: 2.5 g/dL
  TBIL: 0.2 mg/dL
  TC: 81.4 mg/dL
  TG: 79 mg/dL
  TP: 5.4 g/dL
  gamma-GTP: 2.6 IU/L
6 h
  TERMINAL_BW: 207.7 g
  APTT: 15.1 s
  Bas: 0%
  Eos: 0.6%
  Fbg: 257.4 mg/dL
  Hb: 13.3 g/dL
  Ht: 38.2%
  Lym: 60.6%
  MCH: 21 pg
  MCHC: 34.8%
  MCV: 60.2 fL
  Mono: 3.4%
  Neu: 34.6%
  PT: 11.9 s
  Plat: 133.9 x10_4/uL
  RBC: 634.6 x10_4/ul
  Ret: 7.3%
  WBC: 78.7 x10_2/uL
  KIDNEY_L: 0.9 g
  KIDNEY_R: 0.9 g
  KIDNEY_TOTAL: 1.9 g
  LIVER: 8.9 g
  A/G: 0.8
  ALP: 1513.4 IU/L
  ALT: 67 IU/L
  AST: 168.6 IU/L
  BUN: 11.8 mg/dL
  CRE: 0.2 mg/dL
  Ca: 10.2 mg/dL
  Cl: 100.8 meq/L
  DBIL: 0.4 mg/dL
  GLC: 172.6 mg/dL
  IP: 9.1 mg/dL
  K: 4.2 meq/L
  LDH: 196.8 IU/L
  Na: 140.8 meq/L
  PL: 152.8 mg/dL
  RALB: 2.3 g/dL
  TBIL: 0.6 mg/dL
  TC: 79.8 mg/dL
  TG: 42.6 mg/dL
  TP: 5.1 g/dL
  gamma-GTP: 5 IU/L
9 h
  TERMINAL_BW: 208 g
  APTT: 13.8 s
  Bas: 0%
  Eos: 0.4%
  Fbg: 257 mg/dL
  Hb: 12.6 g/dL
  Ht: 35.8%
  Lym: 52.2%
  MCH: 21.1 pg
  MCHC: 35.1%
  MCV: 60.1 fL
  Mono: 3.6%
  Neu: 42.6%
  PT: 11.9 s
  Plat: 139.7 x10_4/uL
  RBC: 595.6 x10_4/ul
  Ret: 7.8%
  WBC: 85.3 x10_2/uL
  KIDNEY_L: 0.9 g
  KIDNEY_R: 0.9 g
  KIDNEY_TOTAL: 1.9 g
  LIVER: 8.6 g
  A/G: 0.8
  ALP: 1671 IU/L
  ALT: 132.8 IU/L
  AST: 365.6 IU/L
  BUN: 11.8 mg/dL
  CRE: 0.2 mg/dL
  Ca: 10.3 mg/dL
  Cl: 101.6 meq/L
  DBIL: 0.7 mg/dL
  GLC: 176.2 mg/dL
  IP: 9.2 mg/dL
  K: 4.3 meq/L
  LDH: 351 IU/L
  Na: 142 meq/L
  PL: 173 mg/dL
  RALB: 2.3 g/dL
  TBIL: 1 mg/dL
  TC: 85 mg/dL
  TG: 45.2 mg/dL
  TP: 5.1 g/dL
  gamma-GTP: 7.4 IU/L
24 h
  TERMINAL_BW: 197.2 g
  APTT: 16.2 s
  Bas: 0%
  Eos: 1%
  Fbg: 321.4 mg/dL
  Hb: 12 g/dL
  Ht: 33.2%
  Lym: 52.8%
  MCH: 21.6 pg
  MCHC: 36%
  MCV: 59.8 fL
  Mono: 6.2%
  Neu: 39%
  PT: 11.9 s
  Plat: 148.1 x10_4/uL
  RBC: 554.4 x10_4/ul
  Ret: 6%
  WBC: 157.9 x10_2/uL
  KIDNEY_L: 0.9 g
  KIDNEY_R: 0.9 g
  KIDNEY_TOTAL: 1.8 g
  LIVER: 7.5 g
  A/G: 0.8
  ALP: 3659.6 IU/L
  ALT: 566.8 IU/L
  AST: 1154.8 IU/L
  BUN: 12 mg/dL
  CRE: 0.2 mg/dL
  Ca: 11 mg/dL
  Cl: 102.6 meq/L
  DBIL: 2.2 mg/dL
  GLC: 145.6 mg/dL
  IP: 8.7 mg/dL
  K: 4 meq/L
  LDH: 788.8 IU/L
  Na: 144.2 meq/L
  PL: 346.4 mg/dL
  RALB: 2.4 g/dL
  TBIL: 3.2 mg/dL
  TC: 145.2 mg/dL
  TG: 133.6 mg/dL
  TP: 5.6 g/dL
  gamma-GTP: 8.4 IU/L
